Here are results for 15 compounds from PubChem BioAssay (NCI).

Among the test systems are NCI-H23 lung; NCI/ADR-RES ovarian; HT29 colon; EKVX NSCLC; SK-MEL-5 melanoma; OVCAR-3 ovarian; LOX IMVI melanoma; HCT-116 colon; OVCAR-4 ovarian.
Holding throughout (experiment): DTP human tumour cell line panel, 48 h

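Five concentrations, 48 hours, 96-well plates. GI50 marks 50% less growth. TGI: concentration producing complete growth inhibition.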

As for `Cc1cccc(/C=C/c2c(C(=O)/C=C/c3ccccc3)c(C)nc3ccccc23)c1`, the GI50 in the assay with NCI-H23 lung is 1.58 µM; with NCI/ADR-RES ovarian, 1.85 µM; in the assay with HT29 colon, 2.12 µM; in the assay with EKVX NSCLC it was 1.75 µM; in the assay on SK-MEL-5 melanoma it was 1.64 µM; with OVCAR-3 ovarian, 1.46 µM. Besides, in the assay with LOX IMVI melanoma, the GI50 was 1.58 µM. Also, the TGI with NCI-H23 lung was 3.57 µM; in the assay with NCI/ADR-RES ovarian, 4.65 µM; with HT29 colon it was 16.9 µM; in the assay with EKVX NSCLC, 3.26 µM; in the assay with SK-MEL-5 melanoma, 2.99 µM; in the assay on OVCAR-3 ovarian, 2.81 µM. The compound further displayed a TGI in the assay with LOX IMVI melanoma of 2.93 µM.
In the case of `CCCCCCCCCCCc1nnc(N)o1`, the TGI in the assay on NCI-H23 lung, in the assay with HT29 colon, in the assay with HCT-116 colon, with OVCAR-4 ovarian, in the assay on OVCAR-3 ovarian and with LOX IMVI melanoma was above 100 µM throughout.
As for `COc1cc(Br)c(C=Nc2cccc3cc(OC)c(OC)cc23)cc1OC`, the total growth inhibition concentration (TGI) in the assay on NCI-H23 lung is above 100 µM; in the assay on HT29 colon, 98.4 µM; in the assay on EKVX NSCLC, above 100 µM; in the assay with HCT-116 colon, above 100 µM; with OVCAR-4 ovarian, above 100 µM; in the assay on SK-MEL-5 melanoma, above 100 µM. For the same compound, the results for the total growth inhibition concentration (TGI) in the assay with OVCAR-3 ovarian and in the assay on LOX IMVI melanoma were 80.8 µM and above 100 µM, respectively.
Consider `O=C(NCCCCNc1cccccc1=O)OCc1ccccc1`, for which the TGI in the assay on NCI-H23 lung, in the assay with HT29 colon, in the assay on EKVX NSCLC, with HCT-116 colon, with OVCAR-4 ovarian and with SK-MEL-5 melanoma was above 100 µM throughout. Further, the total growth inhibition concentration (TGI) in the assay on OVCAR-3 ovarian and in the assay on LOX IMVI melanoma was above 100 µM throughout.
`O=C(O)CCC(=O)N1c2ccccc2CC1c1c[nH]c2ccccc12` (stereo not drawn): the TGI with NCI-H23 lung, in the assay with HT29 colon, with EKVX NSCLC, with HCT-116 colon, with OVCAR-4 ovarian and in the assay on SK-MEL-5 melanoma was above 100 µM throughout. In addition, the total growth inhibition concentration (TGI) with OVCAR-3 ovarian and in the assay on LOX IMVI melanoma was above 100 µM each time.
Turning to `COC1=C(N)C(=O)c2nc(C)ccc2C1=O`, the TGI with NCI-H23 lung was 2.95 µM; in the assay on HT29 colon, 3.74 µM; in the assay on EKVX NSCLC, 6.85 µM; in the assay with HCT-116 colon, 3.99 µM; in the assay on OVCAR-4 ovarian it was 3.66 µM; in the assay with SK-MEL-5 melanoma, 3.09 µM. In addition, the TGI with OVCAR-3 ovarian came out at 3.65 µM; in the assay with LOX IMVI melanoma it was 2.49 µM.
Consider `Cc1nnn[n-]1.N.N.N.N.N.[Cl-].[Co+3]`, for which the GI50 is above 100 µM in the assay on NCI-H23 lung; above 100 µM in the assay with HT29 colon; above 100 µM in the assay with EKVX NSCLC; above 100 µM in the assay with HCT-116 colon; 1.86 µM in the assay on SK-MEL-5 melanoma; above 100 µM in the assay on OVCAR-3 ovarian. Also, the GI50 in the assay with LOX IMVI melanoma is above 100 µM. Besides, the concentration for total growth inhibition (TGI) with NCI-H23 lung is above 100 µM; with HT29 colon, above 100 µM; in the assay with EKVX NSCLC, above 100 µM; with HCT-116 colon it was above 100 µM; in the assay with SK-MEL-5 melanoma, 10.7 µM; with OVCAR-3 ovarian, above 100 µM. The total growth inhibition concentration (TGI) in the assay on LOX IMVI melanoma was above 100 µM.
Take `CC1(C)O[C@H]2[C@H](O)C[C@](O)(CO)C[C@H]2O1`: the TGI in the assay with NCI-H23 lung, in the assay on HT29 colon, with EKVX NSCLC, with HCT-116 colon, in the assay on OVCAR-4 ovarian and with SK-MEL-5 melanoma was above 100 µM each time. In the assay on OVCAR-3 ovarian, this compound had a TGI above 100 µM.
Take `CCOC(=O)c1nn2c(nc1=O)sc1ccc3ccccc3c12`: the TGI in the assay with NCI-H23 lung, in the assay on HT29 colon, in the assay with EKVX NSCLC, in the assay on HCT-116 colon, in the assay on OVCAR-4 ovarian and in the assay with SK-MEL-5 melanoma was above 100 µM throughout. Further, the total growth inhibition concentration (TGI) with OVCAR-3 ovarian and in the assay on LOX IMVI melanoma was above 100 µM throughout.
As for `CCN(CC)c1c(C(=O)/C=C/c2ccc(Cl)cc2)c(-c2ccccc2)nn(C)c1=O`, the TGI in the assay on NCI-H23 lung came to 3.1 µM; in the assay with HT29 colon, 3.32 µM; in the assay with EKVX NSCLC, 6.87 µM; with HCT-116 colon, 3.11 µM; in the assay with OVCAR-4 ovarian, 3.27 µM; with SK-MEL-5 melanoma, 3.2 µM. Also, the TGI with OVCAR-3 ovarian was found to be 4.35 µM; in the assay on LOX IMVI melanoma, 3.48 µM.
With `O=[N+]([O-])c1ccc(C[P+](c2ccccc2)(c2ccccc2)c2ccccc2)cc1`, the TGI in the assay on NCI-H23 lung, with HT29 colon, in the assay on EKVX NSCLC, in the assay with HCT-116 colon, in the assay on SK-MEL-5 melanoma and in the assay with OVCAR-3 ovarian was above 100 µM each time. Further, the concentration for total growth inhibition (TGI) in the assay on LOX IMVI melanoma is above 100 µM.
In the case of `CN(O)C(=O)SCC(NC(=O)CCC(N)C(=O)O)C(=O)NCC(=O)O` (stereo not drawn), the GI50 in the assay with NCI-H23 lung, in the assay with HT29 colon, with EKVX NSCLC, in the assay on HCT-116 colon, in the assay on OVCAR-4 ovarian and with SK-MEL-5 melanoma was above 2000 µM in each case. In addition, the GI50 was above 2000 µM in the assay with OVCAR-3 ovarian and 668 µM in the assay on LOX IMVI melanoma. Also, the concentration for total growth inhibition (TGI) in the assay on NCI-H23 lung, with HT29 colon, in the assay with EKVX NSCLC, in the assay with HCT-116 colon, with OVCAR-4 ovarian and with SK-MEL-5 melanoma was above 2000 µM each time. In addition, the total growth inhibition concentration (TGI) in the assay with OVCAR-3 ovarian and with LOX IMVI melanoma was above 2000 µM in each case.
Turning to `CC1(C)C2CCC13C(=O)C1OC3(C2)C2C(=O)c3cc4ccccc4cc3C(=O)C12` (stereo not drawn), the GI50 is 4.75 µM in the assay with NCI-H23 lung, 2.71 µM in the assay on NCI/ADR-RES ovarian, 11.3 µM with HT29 colon and 12 µM with HCT-116 colon. Besides, the concentration for total growth inhibition (TGI) in the assay with NCI-H23 lung was 32.6 µM; with NCI/ADR-RES ovarian, 15.9 µM; with HT29 colon, above 100 µM; with HCT-116 colon it was above 100 µM.
On to `O=C1N(C2CCCCC2)CC12CCCCC2`, for which the total growth inhibition concentration (TGI) with NCI-H23 lung, in the assay with EKVX NSCLC, in the assay with HCT-116 colon, with OVCAR-4 ovarian, in the assay on SK-MEL-5 melanoma and with LOX IMVI melanoma was above 100 µM throughout.
As to `O=C(O)CCCSC(=O)Nc1ccc(N=Nc2ccccc2)cc1`, the total growth inhibition concentration (TGI) in the assay with NCI-H23 lung, in the assay with HT29 colon, in the assay with EKVX NSCLC, with HCT-116 colon, in the assay on OVCAR-4 ovarian and in the assay with OVCAR-3 ovarian was above 100 µM each time. Further, the total growth inhibition concentration (TGI) in the assay with LOX IMVI melanoma is above 100 µM.

As a reminder, the GI50 is the concentration that inhibits growth by half. As usually defined, the TGI is the concentration giving total growth inhibition.
